This is an account of results in patent publication US20070027162A1, “Crystalline and amorphous 4-cyano-N-{(2R)-2-[4-(2,3-dihydro-benzo[1,4]dioxin-5-yl)-piperazin -1-yl]-propyl}-N-pyridin-2-yl-benzamide hydrochloride” (Wyeth, priority 2005, published 2007).

Each structure is given as a SMILES string. Like-named read-outs stand apart in the source and are kept apart here.

Common to all, as to assay type: physicochemical
Data set [1] can be described thus: Polymorph screen by reslurry at 23° C. and 50° C. Conditions: slurrying in a variety of different solvents at 23° C. and 50° C. From the text: Thermogravimetric analysis (TGA) and differential scanning calorimetry (DSC) data of products of various re-slurries are compared in Tables B and C below together with TGA/DSC data from the crystal form of the invention prepared according to Example 1. TGA/DSC data was obtained as described in Example 3. While DSC endotherms and TGA weight losses slightly differ between experiments, the variation is expected for HCl loss and decomposition of the sample. Powder X-ray diffraction data (see below Examples) of samples from each of the slurries were consistent with the diffraction pattern of FIG. 1 and Table 1.

Data set [2] is described as follows: Reslurry experiments, 12 days at RT, XRD while wet. Particulars: ethanol, IPA, ethyl acetate, acetone, THF, acetonitrile, toluene, iso-propyl acetate, water, days 6 and 12. Here is the method:
4-cyano-N-{(2R)-2-[4-(2,3-dihydro-benzo[1,4]dioxin-5-yl)-piperazin-1-yl]-propyl}-N-pyridin-2-yl-benzamide hydrochloride was reslurried in about 1-2 ml of ethanol, IPA, ethyl acetate, acetone, THF, acetonitrile, toluene, iso-propyl acetate, and water. The suspensions were stirred in 5 ml vials for 12 days at RT. The suspension samples were withdrawn at days 6 and 12, filtered, and analyzed via XRD while wet.

Data set [3] in a line: Solubility determination in a variety of solvents. As to the method:
The solubility of the compound of Formula I in a variety of solvents was measured according to routine methods at 23° C. and 50° C.

Turning to `C[C@H](CN(C(=O)c1ccc(C#N)cc1)c1ccccn1)N1CCN(c2cccc3c2OCCO3)CC1.Cl` [Form A, 4-cyano-N-{(2R)-2-[4-(2,3-dihydro-benzo[1,4]dioxin-5-yl)-piperazin-1-yl]-propyl}-N-pyridin-2-yl-benzamide hydrochloride], the “Stability of crystal form upon slurrying” value in data set [1] is listed as “remained stable”. Besides, the “Form transformation on reslurry (XRD)” value in data set [2] was “No transformation was noticed”.

As a reminder, the solubility is the dissolved amount per volume that the medium holds. On to `C[C@H](CN(C(=O)c1ccc(C#N)cc1)c1ccccn1)N1CCN(c2cccc3c2OCCO3)CC1.Cl` [Formula I, 4-cyano-N-{(2R)-2-[4-(2,3-dihydro-benzo[1,4]dioxin-5-yl)-piperazin-1-yl]-propyl}-N-pyridin-2-yl-benzamide hydrochloride], for which the solubility in data set [3] (organic solvent or mixture, solvent 2-Propanol, 23° C., read-out: Solubility at 23° C.) worked out at 2 mg/mL; in data set [3] (organic solvent or mixture, solvent 2-Propanol, 50° C., read-out: Solubility at 50° C.), 6 mg/mL; in data set [3] (organic solvent or mixture, solvent Acetone, 23° C., read-out: Solubility at 23° C.), 6 mg/mL; in data set [3] (organic solvent or mixture, solvent Acetone, 50° C., read-out: Solubility at 50° C.), 9 mg/mL; in data set [3] (organic solvent or mixture, solvent CH3CN, 23° C., read-out: Solubility at 23° C.), 18 mg/mL; in data set [3] (organic solvent or mixture, solvent CH3CN, 50° C., read-out: Solubility at 50° C.), 37 mg/mL. Further, the solubility was found to be 246 mg/mL in data set [3] (organic solvent or mixture, solvent DMSO, 23° C., read-out: Solubility at 23° C.); 337 mg/mL in data set [3] (organic solvent or mixture, solvent DMSO, 50° C., read-out: Solubility at 50° C.); 19 mg/mL in data set [3] (organic solvent or mixture, solvent EtOH, 23° C., read-out: Solubility at 23° C.); 40 mg/mL in data set [3] (organic solvent or mixture, solvent EtOH, 50° C., read-out: Solubility at 50° C.); 16 mg/mL in data set [3] (organic solvent or mixture, solvent Ethyl acetate, 23° C., read-out: Solubility at 23° C.); 24 mg/mL in data set [3] (organic solvent or mixture, solvent Ethyl acetate, 50° C., read-out: Solubility at 50° C.). Moreover, the solubility was found to be 1 mg/mL in data set [3] (organic solvent or mixture, solvent Heptane, 23° C., read-out: Solubility at 23° C.); 1 mg/mL in data set [3] (organic solvent or mixture, solvent Heptane, 50° C., read-out: Solubility at 50° C.); 378 mg/mL in data set [3] (organic solvent or mixture, solvent MeOH, 23° C., read-out: Solubility at 23° C.); 989 mg/mL in data set [3] (organic solvent or mixture, solvent MeOH, 50° C., read-out: Solubility at 50° C.); 4 mg/mL in data set [3] (organic solvent or mixture, solvent THF, 23° C., read-out: Solubility at 23° C.); 5 mg/mL in data set [3] (organic solvent or mixture, solvent THF, 50° C., read-out: Solubility at 50° C.). Also, the solubility was 8 mg/mL in data set [3] (organic solvent or mixture, solvent Toluene, 23° C., read-out: Solubility at 23° C.); 14 mg/mL in data set [3] (organic solvent or mixture, solvent Toluene, 50° C., read-out: Solubility at 50° C.); 1 mg/mL in data set [3] (organic solvent or mixture, solvent t-Butylmethyl ether (t-BME), 50° C., read-out: Solubility at 50° C.); 49 mg/mL in data set [3] (solvent Water, 23° C., read-out: Solubility at 23° C.); more than 100 mg/mL in data set [3] (solvent Water, 50° C., read-out: Solubility at 50° C.). For the same compound, in data set [3] (water, remark explaining oiling out on cooling), the “Solubility in water (qualitative)” value was “very high solubility”.
